This is an account of results in PubChem BioAssay (NCI).

What all share (assay): NCI-60 cell line screen, 48 h
The subject of assay [1] is UACC-257 melanoma.
The subject of assay [2] is SK-MEL-2 melanoma.
For assay [3], the system named is HCT-15 colon.
Assay [4] deals with KM12 colon.
The subject of assay [5] is MOLT-4 leukemia.
The test system of assay [6] is NCI-H460 lung.
Assay [7] relates to OVCAR-4 ovarian.
The test system of assay [8] is SK-MEL-28 melanoma.
Assay [9] deals with MCF7 breast.
The subject of assay [10] is SN12C renal.
Assay [11] has as its system SK-MEL-5 melanoma.
Assay [12] deals with T-47D breast.
The subject of assay [13] is IGROV1 ovarian.
Assay [14] has as its system HOP-92 NSCLC.
For assay [15], the system named is COLO 205 colon.
The subject of assay [16] is NCI-H226 lung.
Assay [17] relates to OVCAR-3 ovarian.
Assay [18] has as its system UO-31 renal.
The test system of assay [19] is A498 renal.
The test system of assay [20] is UACC-62 melanoma.

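Interpolation was linear, between the two tested concentrations surrounding the appropriate level; five concentrations were tested over 48 hours in 96-well plates. At the TGI there is no net growth.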

On to `S=C(N/N=C(/c1ccccc1)c1ccccn1)Nc1ccc(Cl)cc1`, for which the TGI was 2.43 µM in assay [1]; 4.91 µM in assay [2]; 11.2 µM in [3]; 13.7 µM in assay [4]; greater than 13.8 µM in assay [5]; 5.53 µM in [6]. Also, the TGI in assay [7] turned out to be 14.2 µM; in assay [8], 11.8 µM; in assay [9], 7.16 µM; in assay [10], 13.4 µM; in [11], 8.1 µM; in assay [12] it was 2.89 µM. Besides, the TGI in [13] was found to be 12.9 µM; in [14], 11.9 µM; in [15] it was 18.2 µM; in assay [16], 7.54 µM; in assay [17], 11.6 µM; in assay [18], 9.37 µM. In addition, the figures for the TGI in assay [19] and in assay [20] were 9.4 µM and 7.65 µM, respectively.

With `NCCCCN(CCCN)Cc1ccccc1`, the TGI in assay [1], in assay [2], in [3], in assay [4], in assay [5] and in [6] was greater than 100 µM throughout. For the same compound, the TGI in [7], in assay [8], in assay [9], in assay [10], in assay [11] and in assay [12] was greater than 100 µM throughout. For the same compound, the TGI in [13], in [14], in [15], in [16], in [17] and in assay [18] was greater than 100 µM throughout. The TGI in assay [19] and in assay [20] was greater than 100 µM in each case.

With `COc1ccc(C2CC(c3ccc4ccccc4c3O)=NN2C(C)=O)cc1OC` (stereo not given), the TGI in [1], in assay [2], in [3], in [4], in [5] and in assay [6] was greater than 100 µM throughout. Also, the TGI in [7], in [8], in [9], in assay [10], in [11] and in [12] was greater than 100 µM each time. Besides, the TGI in assay [13], in assay [14], in assay [15], in assay [16], in assay [17] and in assay [18] was greater than 100 µM in each case. In addition, the TGI in assay [19] and in [20] was greater than 100 µM throughout.

With `CN(C)CCCNc1ccnc2cc([N+](=O)[O-])ccc12`, the TGI in [1] was 27.7 µM; in assay [2], 29.7 µM; in [3], 26.7 µM; in [4] it was 26.4 µM; in [5], greater than 100 µM; in [6], 17.7 µM. For the same compound, the TGI came to 12.8 µM in assay [7]; 97.5 µM in [8]; 16.7 µM in assay [9]; 39.9 µM in assay [10]; 24.1 µM in assay [11]; 35.8 µM in [12]. Besides, the TGI stood at 12.8 µM in assay [13]; 8.13 µM in [14]; 7.9 µM in assay [15]; 35 µM in assay [16]; 29.9 µM in assay [17]; 44.8 µM in assay [18]. Also, the TGI is 31.7 µM in [19] and 33.6 µM in assay [20].

Take `CN1C(=O)[C@@H]2N(CSC2(C)C)C1=S`: the TGI in assay [1], in [2], in assay [3], in [4], in assay [5] and in assay [6] was greater than 100 µM throughout. Besides, the TGI in assay [7], in assay [8], in [9], in [10], in assay [11] and in assay [12] was greater than 100 µM in each case. Also, the TGI in assay [13], in assay [14], in assay [15], in [16], in assay [17] and in [18] was greater than 100 µM in each case. Further, the TGI in assay [19] and in assay [20] was greater than 100 µM each time.

`COc1ccc2c(c1)CC[C@@H]1[C@@H]2CC[C@]2(C)C(=O)/C(=C/c3ccncc3)C[C@@H]12`: the TGI in assay [1] was greater than 100 µM; in assay [2] it was 60.1 µM; in [3], greater than 100 µM; in [4] it was 73.9 µM; in assay [5], greater than 100 µM; in [6] it was greater than 100 µM. Further, the TGI is greater than 100 µM in [7]; 90.6 µM in assay [8]; greater than 100 µM in assay [9]; greater than 100 µM in assay [10]; 41.6 µM in assay [11]; greater than 100 µM in [12]. Further, the TGI is greater than 100 µM in [13]; 77.9 µM in [14]; greater than 100 µM in [15]; greater than 100 µM in assay [16]; 44.2 µM in assay [17]; greater than 100 µM in assay [18]. In addition, the TGI was 87.6 µM in [19] and greater than 100 µM in [20].

In the case of `CCCNC(C#N)c1ccc(OCCCCCCCCCCOc2ccc(C(C#N)NCCC)cc2)cc1` (stereo not given), the TGI in [1] was greater than 100 µM; in assay [2], greater than 100 µM; in assay [3], greater than 100 µM; in [4] it was greater than 100 µM; in assay [5], 39.8 µM; in assay [6] it was greater than 100 µM. For the same compound, the TGI in assay [7], in [8], in assay [9], in assay [10], in [11] and in assay [12] was greater than 100 µM in each case. In addition, the TGI in assay [13] was greater than 100 µM; in assay [14], 66.1 µM; in assay [15] it was greater than 100 µM; in assay [16], 93.9 µM; in assay [17], 81.1 µM; in assay [18], greater than 100 µM. The TGI in assay [19] is 42.7 µM; in assay [20], greater than 100 µM.
